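Results reflect a 48-hour exposure of cells in 96-well plates to compound at five concentrations. The concentration for 50% growth inhibition is given as GI50. TGI: total growth inhibition.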
Tests used:
Experiment in all cases: NCI tumour cell line growth inhibition, 48 h
[1] = tested on: 786-0 renal
[2] = tested on: A498 renal
[3] = tested on: ACHN renal
[4] = tested on: BT-549 breast
[5] = tested on: CAKI-1 renal
[6] = tested on: CCRF-CEM leukemia
[7] = tested on: DU-145 prostate
[8] = tested on: EKVX NSCLC
[9] = tested on: HCC-2998 colon
[10] = tested on: HCT-116 colon
[11] = tested on: HCT-15 colon
[12] = tested on: HL-60(TB) leukemia
[13] = tested on: HOP-92 NSCLC
[14] = tested on: HS 578T breast
[15] = tested on: IGROV1 ovarian
[16] = tested on: K-562 leukemia
[17] = tested on: KM12 colon
[18] = tested on: LOX IMVI melanoma
[19] = tested on: M14 melanoma
[20] = tested on: MALME-3M melanoma
[21] = tested on: MCF7 breast
[22] = tested on: MDA-MB-231 breast
[23] = tested on: MDA-MB-435
[24] = tested on: MOLT-4 leukemia
[25] = tested on: NCI-H23 lung
[26] = tested on: NCI-H460 lung
[27] = tested on: NCI-H522 lung
[28] = tested on: NCI/ADR-RES ovarian
[29] = tested on: OVCAR-3 ovarian
[30] = tested on: OVCAR-4 ovarian
[31] = tested on: OVCAR-5 ovarian
[32] = tested on: OVCAR-8 ovarian
[33] = tested on: PC-3 prostate
[34] = tested on: RPMI-8226 leukemia
[35] = tested on: RXF 393 renal
[36] = tested on: SF-268 CNS
[37] = tested on: SF-295 CNS
[38] = tested on: SF-539 CNS
[39] = tested on: SK-MEL-2 melanoma
[40] = tested on: SK-MEL-28 melanoma
[41] = tested on: SK-MEL-5 melanoma
[42] = tested on: SN12C renal
[43] = tested on: SNB-19 CNS
[44] = tested on: SNB-75 CNS
[45] = tested on: SR leukemia
[46] = tested on: SW-620 colon
[47] = tested on: TK-10 renal
[48] = tested on: U251 CNS
[49] = tested on: UACC-257 melanoma
[50] = tested on: UACC-62 melanoma
[51] = tested on: UO-31 renal

`CN1CCN(CCOc2ccc(-c3cnc4c(-c5cccc(F)c5F)cnn4c3)cc2)CC1` was tested, and the GI50 [1] was 1630 nM, the TGI [1] was 3070 nM and the GI50 [2] was 5410 nM. For the same compound, the TGI [2] was 19700 nM, the GI50 [3] was 1620 nM and the TGI [3] was 2970 nM. The GI50 [4] was 1570 nM, the TGI [4] was 3150 nM and the GI50 [5] was 1520 nM. The TGI [5] was 2910 nM, the GI50 [6] was 1550 nM and the TGI [6] was 3810 nM. It also gave a GI50 [7] of 1690 nM, a TGI [7] of 3440 nM and a GI50 [8] of 1590 nM. The TGI [8] was 3750 nM, the GI50 [9] was 11700 nM and the TGI [9] was 24700 nM. The GI50 [10] was 1660 nM, the TGI [10] was 3040 nM and the GI50 [11] was 1480 nM. The TGI [11] was 2910 nM, the GI50 [12] was 1910 nM and the TGI [12] was 3790 nM. For the same compound, the GI50 [13] was 4140 nM, the TGI [13] was 26400 nM and the GI50 [14] was 1910 nM. For the same compound, the TGI [14] was 4740 nM, the GI50 [15] was 1610 nM and the TGI [15] was 3270 nM. The GI50 [16] was 1660 nM, the TGI [16] was 3530 nM and the GI50 [17] was 1720 nM. For the same compound, the TGI [17] was 3390 nM, the GI50 [18] was 1800 nM and the TGI [18] was 3340 nM. It also gave a GI50 [19] of 1710 nM, a TGI [19] of 3200 nM and a GI50 [20] of 1530 nM. For the same compound, the TGI [20] was 3010 nM, the GI50 [21] was 1320 nM and the TGI [21] was 2950 nM. The GI50 [22] was 1600 nM, the TGI [22] was 3360 nM and the GI50 [23] was 1680 nM. It also gave a TGI [23] of 3070 nM, a GI50 [24] of 1600 nM and a TGI [24] of 3530 nM. The GI50 [25] was 1700 nM, the TGI [25] was 3330 nM and the GI50 [26] was 1670 nM. It also gave a TGI [26] of 3190 nM, a GI50 [27] of 1590 nM and a TGI [27] of 3270 nM. For the same compound, the GI50 [28] was 2210 nM, the TGI [28] was 5490 nM and the GI50 [29] was 1710 nM. It also gave a TGI [29] of 3420 nM, a GI50 [30] of 1280 nM and a TGI [30] of 2950 nM. The GI50 [31] was 1990 nM, the TGI [31] was 4430 nM and the GI50 [32] was 2100 nM. For the same compound, the TGI [32] was 5260 nM, the GI50 [33] was 1960 nM and the TGI [33] was 5640 nM. For the same compound, the GI50 [34] was 1450 nM, the TGI [34] was 4010 nM and the GI50 [35] was 1690 nM. For the same compound, the TGI [35] was 3490 nM, the GI50 [36] was 2150 nM and the TGI [36] was 5240 nM. For the same compound, the GI50 [37] was 1800 nM, the TGI [37] was 3330 nM and the GI50 [38] was 1740 nM. It also gave a TGI [38] of 3170 nM, a GI50 [39] of 15500 nM and a TGI [39] of 31000 nM. The GI50 [40] was 1770 nM, the TGI [40] was 3260 nM and the GI50 [41] was 1670 nM. The TGI [41] was 3070 nM, the GI50 [42] was 2080 nM and the TGI [42] was 4670 nM. It also gave a GI50 [43] of 1910 nM, a TGI [43] of 3880 nM and a GI50 [44] of 1410 nM. For the same compound, the TGI [44] was 2730 nM, the GI50 [45] was 282 nM and the TGI [45] was 1160 nM. The GI50 [46] was 1860 nM, the TGI [46] was 3590 nM and the GI50 [47] was 2010 nM. It also gave a TGI [47] of 3620 nM, a GI50 [48] of 1440 nM and a TGI [48] of 2940 nM. For the same compound, the GI50 [49] was 1770 nM, the TGI [49] was 3490 nM and the GI50 [50] was 1840 nM. The TGI [50] was 3610 nM, the GI50 [51] was 1250 nM and the TGI [51] was 2550 nM.

— PubChem BioAssay (NCI)
